Assay results: US20240197688A1, “COMBINATION MEDICINE FOR PREVENTING/TREATING DYSLIPIDEMIA OR CARDIOVASCULAR DISEASE” (KOWA COMPANY, LTD., priority 2021, published 2024)

Legend:
Assay type in all cases: in vivo
[1] = tested on: db/db mice; assay: Effect of combination use on total cholesterol content in liver of db/db mice; conditions: male db/db mice, oral once a day for 2 weeks; compound A 0.3 mg/kg, compound B 10 mg/kg, alone or in combination
Excerpt: Male mice (8-week-old, db/db: BKS.Cg−+Leprdb/+Leprdb/Jcl, Lean: BKS. Cg−m+/m+/Jcl, CLEA Japan, Inc.) were used for an experiment. They were divided into four groups (N=8) based on body weights. For two weeks from the next day of the grouping, each of a solvent (0.5% methylcellulose aqueous solution: MC), a compound A (pemafibrate) alone, a compound B (bempedoic acid) alone, and a combination of pemafibrate and bempedoic acid was orally administered once per day. After four hours from the final administration of the drug, the liver was extracted under isoflurane anesthesia, and the TC concentration in the liver was measured using the FOLCH method described above. • Group 1: Control (Solvent Only) • Group 2: 0.3 mg/kg of Compound A • Group 3: 10 mg/kg of Compound B • Group 4: 0.3 mg/kg of Compound A and 10 mg/kg of Compound B The results were presented by an average value±standard error. Comparison between the control group and each of the drug administration groups was performed by a multiple comparison test of Tukey, and a risk rate of less than 5% was determined to have a significant difference.

[2] = tested on: Wistar rat; assay: Effect of combination use of compound A and compound B on TG index of rat; conditions: male Wistar rat, oral once a day for 2 weeks; compound A 0.3 mg/kg, compound B 30 mg/kg, alone or in combination; actual value
Excerpt: Male rats (7-week-old, Wistar [Crlj: WI], Charles River Laboratories Japan, Inc.) were used for an experiment. Blood was collected from the jugular vein under satiation, and the rats were divided into four groups (N=6) based on TG and TC in the plasma and body weights. For two weeks from the next day of the grouping, each of a solvent (0.5% carboxymethyl cellulose aqueous solution: CMC), a compound A (pemafibrate) alone, a compound B (bempedoic acid) alone, and a combination of pemafibrate and bempedoic acid was orally administered once per day. After four hours from the final administration of the drug, blood was collected under isoflurane anesthesia to obtain plasma. Parameters in the blood were measured using an automated analyzer (Labospect 003, Hitachi High-Technologies Corporation). A lipid content in the liver was measured using the method described in J. Biol. Chem. 226 (1), 497-509 (1957) (FOLCH method). A TG index (%) was expressed as a ratio of a product of a blood TG concentration and a TG content in the liver of a sample to that of Control. In the present Example, the compound A was prepared and used according to the method described in Patent Document 1. […] Comparison between the control group and each of the drug administration groups was performed by a multiple comparison test of Dunnett, and a risk rate of less than 5% was determined to have a significant difference.

[3] = tested on: PPARα gene; assay: Effect of combination use on expression level of PPARα gene in liver of rat (quantitative PCR); conditions: male Wistar rat, oral once a day for 2 weeks; compound A 0.3 mg/kg, compound B 30 mg/kg, alone or in combination; β-actin internal standard; actual value
Excerpt: Male rats (7-week-old, Wistar [Crlj: WI], Charles River Laboratories Japan, Inc.) were used for an experiment. Blood was collected from the jugular vein under satiation, and the rats were divided into four groups (N=6) based on TG and TC in the plasma and body weights. For two weeks from the next day of the grouping, each of a solvent (0.5% carboxymethyl cellulose aqueous solution: CMC), a compound A (pemafibrate) alone, a compound B (bempedoic acid) alone, and a combination of pemafibrate and bempedoic acid was orally administered once per day. After four hours from the final administration of the drug, blood was collected under isoflurane anesthesia to obtain the liver. RNA in the liver was extracted using ISOGEN (Nippon Gene Co., Ltd.), and cDNA was prepared using a high-capacity cDNA reverse transcription kit (Thermo Fischer Scientific). Quantitative PCR (polymerase chain reaction) was performed using the prepared cDNA, and the relative value of the expression level of the PPARα gene was calculated using β-actin gene as an internal standard. […]
The results were presented by an average value standard error. Comparison between the control group and each of the drug administration groups was performed by a multiple comparison test of Dunnett, and a risk rate of less than 5% was determined to have a significant difference.

Row | SMILES | total cholesterol content in the liver compared to Control [1] [%] | TG index (ratio of product of blood TG concentration and liver TG content to that of Control) [2] [%] | expression level of PPARα gene (Ppara) in the liver relative to Control [3] [times]
1 | CC[C@@H](Oc1cccc(CN(CCCOc2ccc(OC)cc2)c2nc3ccccc3o2)c1)C(=O)O [compound A, (R)-2-[3-[[N-(benzoxazole-2-yl)-N-3-(4-methoxyphenoxy)propyl]aminomethyl]phenoxy]butyric acid] | 86.2 | 65.4 | 1.17
2 | CC(C)(CCCCCC(O)CCCCCC(C)(C)C(=O)O)C(=O)O [compound B, 8-hydroxy-2,2,14,14-tetramethylpentadecanedioic acid] | 87.0 | 60.6 | 1.22
